Several values for one entry are separate records, joined by “and”; a condition that tells them apart may be missing. Identical values can stand only once. Marks after values point to notes of the source that are not given here.
Tests used:
[1] = Left ventricular ejection fraction (LVEF) evaluation by MUGA, echocardiogram or cardiac MRI; assay type: in vivo, human
Protocol: Evaluation of left ventricular ejection fraction: LVEF evaluations were performed at baseline, after the second cycle and every 3 cycles thereafter using MUGA, echocardiogram or cardiac MRI (23, 24). A patient's on-study and last available LVEF are included in this analysis. Cardiac measurements were performed according to the American Society of Echocardiography guidelines (25). LVEFs from echocardiograms were evaluated by an independent reviewer in a blinded manner and were assessed using the biplane Simpson's method.

[2] = Post-treatment echocardiogram, global LV function; assay type: in vivo, human
Protocol: Post treatment evaluation of cardiac function (LVEF): Echocardiograms to evaluate cardiac function were also performed on the day following the last dose of the cycle; day 6 for patients treated on days 1 and 5, or day 16 for patients treated on days 1, 8 and 15.
Post-treatment global LV function: To determine whether the observed ECG abnormalities were associated with acute LV wall motion abnormalities, echocardiograms were performed on the day following the last dose of the cycle (d 6 for patients treated on days 1 and 5, and day 16 for patients treated on days 1, 8, and 15).

[3] = Rhythm evaluation by Holter and telemetry monitoring; assay type: in vivo, human
Source text: Rhythm: A 24-hour Holter monitor was obtained prior to initiating therapy to establish a baseline rhythm. Patients were monitored by telemetry following administration of the first dose until discharge on day 3.

[4] = Toxicities and cardiac events observed on the phase II trial; assay type: in vivo, human
Source text: The protocol (NCI 01-C-0049 or 1312) and informed consent were approved by the Institutional Review Board of the National Cancer Institute. All data used in this analysis were obtained from patients who signed an informed consent and were enrolled and treated at the NIH Warren Grant Magnuson Clinical Center. Toxicities were reported using the National Cancer Institute Common Toxicity Criteria, CTC version 2.0. The Inclusion Criteria required measurable disease, an age of 18 years or older, an ECOG performance status of 0, 1 or 2, and a life expectancy of >12 wk. Required laboratory values included AGC≧1000/μL, platelets≧100,000/μL, bilirubin <1.5× the institutional upper limit of normal (ULN), AST <3×ULN, and creatinine <1.5×ULN. Patients with a myocardial infarction within the previous 6 months, a left ventricular ejection fraction (LVEF) below normal (<45% if performed by MUGA, or <50% if performed by echocardiogram or cardiac MRI), a corrected QT interval of >500 ms, unstable angina, or third degree heart block (unless with pacemaker) were not eligible to enroll.
Subsequently, the protocol was amended and all patients were treated on days 1, 8 and 15 of a 28 day cycle, with a starting dose of 14 mg/m^2. This change was made for improved patient tolerability. […] Provisions for dose reduction were made in the case of grade 3 or 4 toxicity. Alternatively, a dose increase was allowed for patients who had no serious toxicities.

[5] = QTc analysis (heart rate-corrected QT interval) on ECGs, phase II trial; settings: for Least Square mean QT interval: all doses of first 6 cycles
[6] = 16 patients receiving at least 6 cycles
[7] = 16 patients receiving at least 6 cycles, baseline
[8] = among 123 ECGs, day 6 or day 16
[9] = Bazett's formula, 2051 ECGs, 42 patients
[10] = first 6 cycles, all 42 patients
[11] = re-calculated using Friderica's formula

Question: Which results are given for `C/C=C1\NC(=O)[C@H]2CSSCC/C=C/[C@H](CC(=O)N[C@H](C(C)C)C(=O)N2)OC(=O)[C@H](C(C)C)NC1=O` [romidepsin, (1S,4S,10S,16E,21R)-7-[(2Z)-ethylidene]-4,21-diisopropyl-2-oxa-12,13-dithia-5,8,20,23-tetraazabicyclo[8.7.6]tricos-16-ene-3,6,9,19,22-pentanone]?
Answer: Pre-treatment versus post-treatment LVEF ([1]; 8 patients with six or more cycles and prior doxorubicin): did not demonstrate a difference in pre-treatment and post-treatment LVEF; Latest EF, Median [1, 6]: 63.5%; Latest EF, Range [1, 6]: 50-80%; Starting EF, Median [1, 7]: 65.5%; Starting EF, Range [1, 7]: 50-85%; LVEF evaluations versus baseline ([1]; 16 patients who received six or more cycles, median cumulative dose 390 mg/m^2): did not demonstrate a change from baseline; EF by MUGA, On-study Median (range) ([1]; All patients (19), baseline): 61% (46-85); EF by Echocardiogram, On-study Median (range) ([1]; All patients (23), baseline): 67% (53-85); Median actual change in LVEF, on-study to last scan ([1]; MUGA scans, 13 patients, median 20.3 weeks): 1%; EF by MUGA, Last evaluation Median (range) ([1]; Patients treated with >6 cycles (7)): 61% (50-68); EF by MUGA, On-study Median (range) ([1]; Patients treated with >6 cycles (7), baseline): 64% (50-77); EF by Echocardiogram, Last evaluation Median (range) ([1]; Patients treated with >6 cycles (9)): 68% (58-80); EF by Echocardiogram, On-study Median (range) ([1]; Patients treated with >6 cycles (9), baseline): 69% (56-85); EF by MUGA, Last evaluation Median (range) ([1]; Patients with pre- and post treatment evaluations (13)): 61% (50-91); EF by MUGA, On-study Median (range) ([1]; Patients with pre- and post treatment evaluations (13), baseline): 62% (46-85); EF by Echocardiogram, Last evaluation Median (range) ([1]; Patients with pre- and post treatment evaluations (22)): 64% (53-87); EF by Echocardiogram, On-study Median (range) ([1]; Patients with pre- and post treatment evaluations (22), baseline): 67% (53-85); Median actual change in LVEF, on-study to last scan ([1]; echocardiograms, 22 patients, median 18.4 weeks): −1%; Latest EF ([1]; individual patients receiving at least 6 cycles of therapy): 50% and 78% and 61% (3×) and 72% and 68% (3×) and 80% and 58% (2×) and 70% and 63% and 64% and 60%; Starting EF ([1]; individual patients receiving at least 6 cycles of therapy, baseline): 52% and 69% and 56% and 67% and 70% (2×) and 85% (2×) and 68% and 58% and 59% and 64% (2×) and 50% and 77% and 54%; ECGs with ST-segment depression obtained on the same day as the echocardiogram [2, 8]: 23; ECGs with T-wave flattening obtained on the same day as the echocardiogram [2, 8]: 82; ECGs with no abnormalities obtained on the same day as the echocardiogram [2, 8]: 18; Echocardiograms demonstrating a change from baseline (acute LV wall motion) ([2]; day following last dose of the cycle (day 6 or day 16), 145 echocardiograms, 34 patients): None; VT on 24-hour Holter during administration ([3]; 20 administrations to 9 patients, including 2 with VT pre-treatment): No patient had VT; Patients noted to have SVT on 24-hour Holter during administration ([3]; 20 administrations to 9 patients, episodes similar to pretreatment Holter): Two; Additional patients observed to have wide complex tachycardia on telemetry ([3]; telemetry 24-36 hours, 36 patients, max one event per 24 hr, 4 to 12 beats): Four; Additional patients observed to have rare SVT on telemetry ([3]; telemetry 24-36 hours, 36 patients, similar frequency on pre-treatment Holter): Three; Observed toxicities ([4]; 42 patients, phase II trial): primarily nausea and fatigue; Pre-treatment and post-treatment EP studies ([4]; one patient with significant ectopy prior to initiation of protocol): no change in intracardiac conduction or inducibility of any arrhythmias; Cardiac event in a patient with QTc greater than 500 ([4]; telemetry, abnormal magnesium and potassium levels): 12 beat run of VT that was asymptomatic and did not recur; Maximal increase of QTc, median ([5]; 31 patients, first six cycles): 11.3%; Maximum increase in QTc ([5]; 31 patients, first six cycles): 78.25 ms; Doses associated with a 30 to 60 ms prolongation of QTc ([5]; 349 doses, 31 patients): 25%; Doses associated with a greater than 60 ms prolongation of QTc ([5]; 349 doses, 31 patients): 2.6%; Median change of QTc from baseline ([5]; 670 ECGs obtained immediately post-treatment or on the day following treatment): 13.42 ms; Share of ECGs with QTc over 450 ms that were obtained immediately post treatment or on the day following treatment ([5]; Bazett's formula): Eighty-nine; Number of patients with QTc greater than 450 ms ([5]; Bazett's formula, 42 patients): 28; Number of patients with QTc greater than 480 ms ([5]; Bazett's formula, 42 patients): 10; Number of patients with QTc greater than 500 ms ([5]; Bazett's formula, 42 patients): 4; Number of ECGs with QTc greater than 450 ms [5, 9]: 163; Number of ECGs with QTc greater than 480 ms [5, 9]: 20; Number of ECGs with QTc greater than 500 ms [5, 9]: 5; Share of ECGs with QTc greater than 450 ms [5, 9]: 8.0%; Share of ECGs with QTc greater than 480 ms [5, 9]: 1%; Share of ECGs with QTc greater than 500 ms [5, 9]: 0.2%; QTc Interval Difference [D2]-[4 hr], Median ([5]; C1): 0.0 ms; QTc Interval Difference [D3]-[Baseline], Median ([5]; C1): -2.5 ms; QTc Interval Difference [D3]-[D2], Median ([5]; C1): -20.0 ms; QTc Interval Difference [D2]-[Baseline], Median ([5]; C1 (cycle 1)): 10.8 ms; QTc Interval Difference [4 hr]-[Baseline], Median ([5]; C1 (cycle 1), first dose, day 1, 8, 15 schedule): 16.5 ms; QTc Interval Difference [4 hr]-[Baseline], Median ([5]; C2): 8.0 ms; QTc Interval Difference [D2]-[Baseline], Median ([5]; C2): 13.2 ms; QTc Interval Difference [4 hr]-[Baseline], Median ([5]; C3): 15.5 ms; QTc Interval Difference [D2]-[Baseline], Median ([5]; C3): 5.3 ms; QTc Interval Difference [4 hr]-[Baseline], Median ([5]; C4): 15.9 ms; QTc Interval Difference [D2]-[Baseline], Median ([5]; C4): 15.5 ms; QTc Interval Difference [4 hr]-[Baseline], Median ([5]; C5): 18.2 ms; QTc Interval Difference [D2]-[Baseline], Median ([5]; C5): 14.8 ms; QTc Interval Difference [4 hr]-[Baseline], Median ([5]; C6): 18.8 ms; QTc Interval Difference [D2]-[Baseline], Median ([5]; C6): 17.8 ms; Least Square mean QT interval ([5]; Post dose, 31 patients, p < 0.0001 vs pre-dose): 424.1*; Least Square mean QT interval ([5]; Pre-dose, 31 patients): 409.7; Maximum increase in QTc over that patient's mean baseline QTc ([5]; baseline QTc of 415.75): 19%; Least Square mean QT interval ([5]; day 1 (pre-treatment), 31 patients, repeated measures ANOVA): 410.3; Least Square mean QT interval ([5]; day 2 (day after treatment), 31 patients): 422.7; Least Square mean QT interval ([5]; day 8 (pre-treatment), 31 patients): 410.8; Least Square mean QT interval ([5]; day 9 (day after treatment), 31 patients): 426.0; Least Square mean QT interval ([5]; day 15 (pre-treatment), 31 patients): 408.0; Least Square mean QT interval ([5]; day 16 (day after treatment), 31 patients): 423.7; Doses associated with a 30 to 60 ms prolongation of QTc [5, 10]: 24%; Doses associated with a greater than 60 ms prolongation of QTc [5, 10]: 3.2%; Time after treatment by which QTc changes had reverted to baseline ([5]; first cycle): ≤ 48 h; Number of ECGs demonstrating an increased QTc from baseline ([5]; of 670 ECGs obtained immediately post-treatment or on the day following treatment, 31 patients): 514; Number of ECGs with QTc greater than 450 ms [5, 11]: 27; Number of ECGs with QTc greater than 480 ms [5, 11]: 3; Number of patients with QTc greater than 450 ms [5, 11]: 15; Number of patients with QTc greater than 480 ms [5, 11]: 3; QTc greater than 500 ms [5, 11]: no QTc was greater than 500 ms; Share of ECGs with QTc greater than 450 ms [5, 11]: 1.3%; Share of ECGs with QTc greater than 480 ms [5, 11]: 0.1%
